Results published in PMC6967409 (Frontiers in Chemistry, 2020).
Converted amounts (≈) assume the structure as drawn. “And” between values parts separate entries of the source, which are not always exact repeats. Identical values can stand only once. Like-named read-outs stand apart in the source and are kept apart here.

Legend:
P. falciparum W2 [1] = experiment: T0 [3H]-hypoxanthine drug susceptibility assay; assay type: cell-based; details: Plasmodium falciparum; for IC50: W2, read-out: W2 IC50; for IC90: W2, read-out: W2 IC90
P. falciparum NF54 [2] = test system: P. falciparum NF54; set-up: method as in Coertzen et al. (2018); details: pLDH, 48 h; ref Coertzen et al. (2018); read-out: Metabolic IC50 NF54; cited from earlier work
P. falciparum Dd2 [3] = test system: P. falciparum Dd2; set-up: method as in Coertzen et al. (2018); details: pLDH, 48 h; ref Coertzen et al. (2018); read-out: Metabolic IC50 Dd2; cited from earlier work
P. falciparum NF54 [4] = test system: P. falciparum NF54; set-up: method as in Coertzen et al. (2018); details: SYBR Green I; ref Coertzen et al. (2018); read-out: Proliferative IC50 NF54; cited from earlier work
P. falciparum K1 [5] = test system: P. falciparum K1; set-up: method as in Coertzen et al. (2018); details: SYBR Green I; ref Coertzen et al. (2018); read-out: Proliferative IC50 K1; cited from earlier work
P. falciparum W2 [6] = test system: P. falciparum W2; set-up: method as in Coertzen et al. (2018); details: SYBR Green I; ref Coertzen et al. (2018); read-out: Proliferative IC50 W2; cited from earlier work
[7] = test system: P. falciparum NF54 early stage gametocytes (>90% stage I–III); set-up: method as in Coertzen et al. (2018); details: read-out: Early Stage (EG, Luc 48 h) IC50; >90% stage I–III gametocytes; ref Coertzen et al. (2018); cited from earlier work
[8] = test system: P. falciparum NF54 late stage gametocytes (>90% stage IV and V); set-up: method as in Coertzen et al. (2018); details: read-out: Late Stage (LG, Luc 72 h) IC50; >90% stage IV and V gametocytes; ref Coertzen et al. (2018); cited from earlier work
[9] = set-up: method as in Haynes et al., 2006; details: ref Haynes et al., 2006; cited from earlier work
[10] = test system: Chinese hamster ovarian (CHO) cells; details: read-out: Cytotoxicity EC50 CHO; MTT assay; ref Coertzen et al. (2018); cited from earlier work
[11] = test system: P. berghei ANKA GFP-Luc-SMcon sporozoites; experiment: P. berghei-luciferase liver stage bioluminescence assay (causal prophylactic mode) in HepG2-CD81 cells; assay type: cell-based, Plasmodium berghei; details: for Emax: 48 h, read-out: P.berghei-Luciferase Liver Stage Bioluminescence Assay: Maximum measured (%)
Protocol: (§1) Briefly, HepG2-CD81 cells were seeded into 1,536 well plates containing 50 nL of test and control compounds diluted into DMSO. […] Next, 2 μL of luciferin reagent (Promega BrightGlo) was added to each well and luciferase activity was detected using a Perkin Elmer Envision plate reader. […] In parallel, plates were processed without sporozoites for HepG2 toxicity measurements.
(§2) In continuation of the transmission blocking theme, it is important to establish activities against liver stage parasites. […] This assay uses ultra-high-throughput screening methods optimized for a 1536-well format and a HepG2 human hepatoma cell line. […] To establish selectivity of the compounds for the parasite in the liver stage of infection, cytotoxicity was determined by measuring bioluminescence from the reaction between free ATP of compound-treated, uninfected hepatocytes and a luciferase reporter system.

[12] = HepG2 cytotoxicity bioluminescence assay (CellTiterGlo, ATP); assay type: cell-based, human; details: human, uninfected HepG2-CD81 cells; for IC50 at 72 h: two biological replicates listed in one cell; for EC50 at 72 h: uninfected HepG2, ATP bioluminescence
Protocol: as §1, §2

HepG2 cells = experiment: as above; assay type: cell-based, human; details: for IC50 / HepG2 Cytotoxicity Bioluminescence Assay: Maximum measured (%): two biological replicates listed in one cell
Protocol: as §1, §2

[13] = test system: P. falciparum ARC08-22 (4G); experiment: T0 [3H]-hypoxanthine drug susceptibility assay, artemisinin-resistant clone (C580Y); assay type: cell-based, Plasmodium falciparum; details: preliminary, W2 as comparative sensitive strain
[14] = test system: P. falciparum PL08-009 (5C); experiment: as above; assay type: cell-based, Plasmodium falciparum; details: preliminary, W2 as comparative sensitive strain
P. falciparum NF54 [15] = experiment: Metabolic (parasite LDH) assay, asexual ring stage parasites, 48 h; assay type: cell-based; details: Plasmodium falciparum, pLDH, CQ-sensitive NF54
Protocol: (§3) P. falciparum parasites (NF54, K1, and W2) were cultured in vitro in human erythrocytes (A^+ or O^+) under 90% N2, 5% CO2, and 5% O2 atmospheric conditions with supplemented RPMI 1640 media (Sigma Aldrich) containing Albumax II, as previously described (Verlinden et al., [2011]). This study was carried out according the guidelines set out by the Faculty of Health Sciences Ethical Committee, Ethical Clearance no. EC-120821/077. The protocol was approved by the Faculty of Health sciences ethical committee at the University of Pretoria. All subjects gave written informed consent in accordance with the Declaration of Helsinki. Parasite proliferation was monitored microscopically using Giemsa stained smears. Synchronized ring stage parasites (>95%) were obtained using a 5% D-sorbitol (Sigma Aldrich) treatment. […] Gametocyte cultures were kept stationary under 90% N2, 5% CO2, and 5% O2 atmospheric conditions at 37°C and treated with 50 mM N-acetyl-glucosamine (NAG) to eliminate residual invasion of asexual parasites.
(§4) Working solutions of the derivatives were prepared from a 10 mM stock solution in 100% DMSO in supplemented RPMI 1640 media containing Albumax II with a final DMSO concentration of <0.1%, previously determined as being non-toxic to intraerythrocytic asexual parasites and gametocytes. Dose responses were assayed using a two-fold serial drug dilution on in vitro >95% ring stage intraerythrocytic P. falciparum parasites at 37°C under 90% N2, 5% CO2, and 5% O2 atmospheric conditions, detecting both parasite lactate dehydrogenase (pLDH) activity as a metabolic marker following a 48 h drug exposure (1.5–2% parasitemia and 2% hematocrit; Makler et al., [1993]) and SYBR Green I fluorescence as proliferative marker following a 96 h drug exposure (1% parasitemia and 1% hematocrit). […] Data analysis was performed using GraphPad Prism 7.

P. falciparum Dd2 [16] = experiment: as above; assay type: cell-based; details: Plasmodium falciparum, pLDH, Dd2 CQ, pyrimethamine resistant
Protocol: as §4

P. falciparum K1 [17] = experiment: Proliferative (SYBR Green I) assay, asexual parasites, 96 h; assay type: cell-based; details: Plasmodium falciparum, ±SEM
Protocol: as §3, §4

P. falciparum NF54 [18] = experiment: as above; assay type: cell-based; details: Plasmodium falciparum, ±SEM
Protocol: as §3, §4

P. falciparum W2 [19] = experiment: as above; assay type: cell-based; details: Plasmodium falciparum, ±SEM
Protocol: as §3, §4

Cytotoxicity, MTT assay = assay type: cell-based; details: Chinese hamster, CHO cells
Protocol: (§5) Cytotoxicity (EC50) was determined against Chinese hamster ovarian (CHO) using a 3-(4,5-dimethylthiazol-2-yl)-2,5-diphenyltetrazolium bromide (MTT) assay and hepatocellular carcinoma cells (HepG2) using the Cytoselect LDH cytotoxicity assay kit (Cell Biolabs).

[20] = Cytotoxicity, Cytoselect LDH cytotoxicity assay kit; assay type: cell-based; details: human, HepG2 cells
Protocol: as §5

[21] = test system: P. falciparum NF54 early stage gametocytes (>90% stage I–III); experiment: Gametocytocidal luciferase reporter assay, early stage, 48 h; assay type: cell-based; details: Plasmodium falciparum, NF54, 48 h, read-out: Early Stage (EG, Luc 48 h) IC50
Protocol: as §3
(§6) Gametocytocidal activity was determined using the luciferase reporter line (Reader et al., [2015]) to derive dose responses with two-fold serial drug dilutions for 48 h against early stage gametocytes (day 5 post-induction population, >90% stage I–III) and 10-fold serial drug dilutions for 72 h against late stage gametocytes (day 10 post-induction population, >90% late stage IV–V) (2% gametocytemia, 2% hematocrit), at 37°C under 90% N2, 5% CO2, and 5% O2 atmospheric conditions.

[22] = test system: P. falciparum NF54 late stage gametocytes (>90% stage IV and V); experiment: Gametocytocidal luciferase reporter assay, late stage, 72 h; assay type: cell-based, Plasmodium falciparum; details: Plasmodium falciparum, NF54, 72 h, read-out: Late Stage (LG, Luc 72 h) IC50, >90% stage IV and V gametocytes, ±SEM
Protocol: as §3, §6

[23] = Plasmodium berghei, two biological replicates listed in one cell
[24] = Plasmodium berghei, HepG2, 48 h, liver stage, HepG2 host cells, luciferase after 48 h, ±SD, read-out: P. berghei sporozoites IC50
[25] = Plasmodium berghei, two biological replicates listed in one cell, read-out: P.berghei-Luciferase Liver Stage Bioluminescence Assay: IC50

SMILES	IC50 (P. falciparum W2 [1])	IC90 (P. falciparum W2 [1])	IC50 (P. falciparum NF54 [2])	IC50 (P. falciparum Dd2 [3])	IC50 (P. falciparum NF54 [4])	IC50 (P. falciparum K1 [5])	IC50 (P. falciparum W2 [6])	IC50 [7]	IC50 [8]	EC50 [10]	Emax [11, 23]	IC50 [11, 24]	IC50 [11, 25]	IC50 at 72 h [12]	EC50 at 72 h [12]	susceptibility of ARC08-22 (4G) clone (in words) [13]	further results
CC1CCC2C(C)C(NS(N)(=O)=O)OC3OC4(C)CCC1C32OO4 (stereo not drawn) [Sulfamide 11]	4.87 ± 0.59 nM	7.53 ± 0.23 nM	10.9 ± 3.4 nM	16.9 ± 2.6 nM	3 ± 1 nM	1.78 ± 0.26 nM	2.04 ± 0.11 nM	15 ± 2 nM	419 ± 59.5 nM	56000 ± 4600 nM							water solubility [9]: 294 µg/mL (≈ 811 µM)
C[C@H]1[C@H](N2CCSCC2)O[C@@H]2O[C@@]3(C)CC[C@H]4[C@H](C)CC[C@@H]1[C@@]24OO3 [Artemiside 7, artemiside]	2.21 ± 0.42 nM	4.28 ± 0.25 nM	6 ± 1.8 nM	8.2 ± 1.4 nM	1.11 ± 0.17 nM	1.6 ± 0.4 nM	1.75 ± 0.27 nM	16.4 ± 1 nM	1.5 ± 0.5 nM	> 271000 nM	98.1%	81.3 ± 9.62 nM	74.5 nM	> 25000 nM	> 25000 nM	no indication of reduced susceptibility	inhibition at 5 µM ([11]; Plasmodium berghei, Conc. 5 μM, read-out: P. berghei sporozoites Maximum inhibition %): 99 ± 1.34%; IC50 ([11]; two biological replicates listed in one cell, listed as 7 Artemiside (GC008), read-out: P.berghei-Luciferase Liver Stage Bioluminescence Assay: IC50): 88.1 nM; HepG2 cytotoxicity IC50 (in words) (HepG2 cells; at 25 μM (artemiside 7) and 50 μM (artemisone 8)): no measurable IC50 values; IC50 (HepG2 cells): > 25000 nM; HepG2 Cytotoxicity Bioluminescence Assay: Maximum measured (%) (HepG2 cells; listed as 7 Artemiside (GC008)): 30.4% and 36.5%; susceptibility of PL08-009 (5C) clone (in words) [14]: no indication of reduced susceptibility
C[C@H]1[C@H](N2CCN(C(=O)c3ccc(C(F)(F)F)cc3)CC2)O[C@@H]2O[C@@]3(C)CC[C@H]4[C@H](C)CC[C@@H]1[C@@]24OO3 [Compound 27]	0.21 ± 0.04 nM	0.41 ± 0.08 nM									105%	168 ± 55.2 nM	129 nM	8910 nM	7020 nM	no indication of reduced susceptibility	IC50 (P. falciparum NF54 [15]): 0.49 ± 0.04 nM; IC50 (P. falciparum Dd2 [16]): 13.2 ± 9.3 nM; IC50 (P. falciparum K1 [17]): 3.5 ± 2.4 nM; IC50 (P. falciparum NF54 [18]): 3.4 ± 0.4 nM; IC50 (P. falciparum W2 [19]): 3 ± 0.4 nM; EC50 (Cytotoxicity, MTT assay): 150000 nM; EC50 [20]: 136 nM; IC50 [21]: 43.7 ± 5.1 nM; IC50 [22]: 2.8 ± 1.8 nM; inhibition at 10 µM ([11]; Plasmodium berghei, Conc. 10 μM, read-out: P. berghei sporozoites Maximum inhibition %): 108 ± 4.24%; IC50 ([11]; two biological replicates listed in one cell, listed as 27 (WHN-15), read-out: P.berghei-Luciferase Liver Stage Bioluminescence Assay: IC50): 207 nM; HepG2 Cytotoxicity Bioluminescence Assay: Maximum measured (%) (HepG2 cells; listed as 27 (WHN-15)): 78.3% and 80.2%; IC50 (HepG2 cells; listed as 27 (WHN-15)): 5120 nM
